In one series the test system is blood stage. Conditions: cited from earlier work.
Series [1] relates to chloroquine-resistant (CQR) K1 strain of Plasmodium falciparum. Kind of series: In vitro antiplasmodial assay (parasite lactate dehydrogenase), K1 strain. The conditions noted are these: for Resistance Index (RI): RI = IC50 (CQR)/IC50 (CQS); for activity against the CQR K1 strain relative to CQS (in words): resistance indices very close to unity. Type of series: cell-based. The method, then:
(§1) Continuous in vitro cultures of asexual erythrocyte stages of P. falciparum were maintained using a modified method by Trager and Jensen. Quantitative assessment of the antiplasmodial activity in vitro was determined via the parasite lactate dehydrogenase assay using a modified method described by Makler. […] Samples were tested as a suspension if not completely dissolved. Stock solutions were stored at −20 °C. Further dilutions were prepared on the day of the experiment. […] The vitamin B12 complexes were tested at starting concentrations up to 50 μg/ mL, which was then serially diluted 2-fold in complete medium to give 10 concentrations. The ligands were tested at a starting concentration of 10 μg/mL, which was serially diluted 2-fold in complete medium to give 10 concentrations. […] The IC50 values were obtained using a non-linear dose-response curve fitting analysis via Graph Pad Prism v.5.0 software (GraphPad Software Inc., San Diego, CA, USA).

For series [2], the system named is chloroquine-sensitive (CQS) NF54 strain of Plasmodium falciparum. Kind of series: In vitro antiplasmodial assay (parasite lactate dehydrogenase), NF54 strain. The format is cell-based. Conditions: for activity in the sensitive strain (in words): NF54 strain. The method, then:
as §1

For series [3], the system named is zebrafish (Danio rerio) embryos. Kind of series: Zebrafish embryo toxicity (lethal, developmental, cardiotoxicity). The conditions noted are these: 6 to 120 hpf; for toxicity in zebrafish embryos (survival/teratogenicity, in words): doses up to 150 µM. The method, then:
The toxicity evaluation of B12-JR1, B12-JR1-CBC and vitamin B12 in the zebrafish model was carried out according to general rules of the OECD Guidelines for the Testing of Chemicals. […] Embryos of wild type zebrafish (Danio rerio, AB strain) were raised in a temperature- and light-controlled zebrafish facility with 28 °C and standard 14:10-h light-dark photoperiod, and regularly fed with commercially dry flake food (TetraMin™ flakes; Tetra Melle, Germany) twice a day and Artemia nauplii once daily. Zebrafish embryos were produced by the pair-wise mating, collected and distributed into 24-well plates containing 10 embryos per well and 1 mL embryos water (0.2 g L^−1 of Instant Ocean® Salt in distilled water), and raised at 28 °C. […] Experiments were performed three times using 30 embryos per concentration. Apical endpoints for the toxicity evaluation (Table S1) were recorded at 24, 48, 72, 96 and 120 hpf using an inverted microscope (CKX41; Olympus, Tokyo, Japan). […] Experiments were performed three times using 5 embryos per concentration. The hepatotoxicity was determined according to the change of liver area index compared to the control group, calculated as the ration between liver area and embryonic lateral area x 100%, as reported by Zhang et al.. In addition, the liver colour and retention of yolk were followed as the phenotypic signs of hepatotoxicity.

The test system of series [4] is liver of Tg(fabp10:EGFP) zebrafish embryos. In words: Zebrafish hepatotoxicity, transgenic Tg(fabp10:EGFP) embryos. The format is in vivo, Danio rerio. Conditions: 150 µM. The method, then: (§2) Because liver toxicity presents one of the most common drawbacks of the drugs approved for the human use, the drugs synthesized in this study were examined for the possible hepatotoxicity in vivo. The transgenic Tg(fabp:EGFP) zebrafish embryos exposed at 72 hpf (a stage when the liver is becoming vascularized and performing metabolic transformation of the absorbed compounds) to the synthesized drugs were evaluated for the liver colour (a possible necrosis sign), size, fluorescence and the liver area index ([…]). These are all parameters commonly used for hepatotoxicity evaluation and to follow the effect of applied therapies on the liver function.
Dead embryos were counted and discarded every 24 h.

Series [5] has as its system Chinese Hamster Ovarian (CHO) cell-line. The format is cell-based. On the procedure:
(§3) B12-JR1 was screened for in vitro cytotoxicity against the Chinese Hamster Ovarian (CHO) cell-line using the 3-(4,5-dimethylthiazol-2-yl)-2,5-diphenyltetrazolium bromide (MTT)-assay. The test sample was prepared to a 20 mg mL^−1 stock solution in 100% DMSO and tested in triplicate. Stock solutions were stored at −20 °C. Further dilutions were prepared in complete medium on the day of the experiment. Samples were tested as a suspension if not completely dissolved. Emetine was used as the reference drug in all experiments. The initial concentration of emetine was 100 µg mL^−1, which was diluted in complete medium with 10-fold dilutions to give 6 concentrations, the lowest being 0.001 µg mL^−1. The same dilution technique was applied to all test samples. The highest concentration of solvent to which the cells were exposed to have no measurable effect on the cell viability. […] Furthermore, the cytotoxicity in terms of the antiproliferative effect of B12-JR1, B12-JR2 and B12-JR3 were similarly evaluated by the MTT assay. The assay was carried out using human lung fibroblasts (MRC5) cell line after 48 h of cell incubation in the medium, containing compounds at concentrations ranging from 5 to 200 μM. […] The results were expressed as mean values ± standard deviation (SD) and analysed using Student’s t-test at a threshold level of p = 0.05. […]

For series [6], the system named is Tg(fabp10:EGFP) zebrafish embryos. In words: Zebrafish bio-distribution, transgenic Tg(fabp10:EGFP) embryos. The format is in vivo, Danio rerio. The method, then:
as §2
To verify a preferential accumulation of B12-JR1-CBC in the liver, the compound was applied intravenously (parenteral use) to zebrafish embryos.

For series [7], the system named is human lung fibroblasts (MRC5) cell line. In words: In vitro cytotoxicity, MTT assay, MRC5. Type of series: cell-based. The conditions noted are these: 48 h, 5 to 200 μM, read-out: IC50 against MRC5. The method, then: as §3
On the technique in general: Tetrazolium dyes change colour on reduction, which living cells bring about.

The mark [8] stands for this setting: Plasmodium falciparum, CQR K1 strain, asexual erythrocyte stages, triplicate, read-out: K1 IC50 ± SD.
Where [9] appears, read: Plasmodium falciparum, CQS NF54 strain, asexual erythrocyte stages, triplicate, na = not active at the tested concentration, read-out: NF54 IC50 ± SD.
Setting [10] is: CQR K1 strain, asexual erythrocyte stages, triplicate, read-out: K1 IC50 ± SD.
Where [11] appears, read: CQS NF54 strain, asexual erythrocyte stages, triplicate, na = not active at the tested concentration, read-out: NF54 IC50 ± SD.

Read-outs that look alike come from different tables or passages of the source.

With `C/C1=C2/[N-][C@H]([C@H](CC(N)=O)[C@@]2(C)CCC(=O)NC[C@@H](C)OP(=O)([O-])O[C@H]2[C@@H](O)[C@@H](n3cnc4cc(C)c(C)cc43)O[C@@H]2CO)[C@]2(C)N=C(/C(C)=C3N=C(/C=C4N=C1[C@@H](CCC(N)=O)C\4(C)C)[C@@H](CCC(N)=O)[C@]\3(C)CC(N)=O)[C@@H](CCC(N)=O)[C@]2(C)CC(N)=O.[CH2-][C@H]1O[C@@H](n2cnc3c(N)ncnc32)[C@H](O)[C@@H]1O.[Co]` [Ado-Cbl, adenosylcobalamin], the “rank of antimalarial activity among naturally occurring Cbls (in words)” value with blood stage is listed as “most active”.

The IC50 is the concentration needed to halve the response being measured. As for `CCN(CC)CCCC(C)Nc1ccnc2cc(Cl)ccc12` (centres unmarked) [CQ, chloroquine, reference compound], the IC50 came out at 0.4 ± 0.04 µM in series [1] (Plasmodium falciparum, K1, Erythrocyte, read-out: K1 IC50 ± SD) and 0.013 ± 0.001 µM in series [2] (Plasmodium falciparum, NF54, Erythrocyte, read-out: NF54 IC50 ± SD).

Turning to `C#Cc1ccc(-c2cn(CCNc3ccnc4cc(Cl)ccc34)nn2)cc1` [JR1, 7-chloro-N-(2-(4-(4-ethynylphenyl)-1H-1,2,3-triazol-1-yl)ethyl)quinolin-4-amine], the half-inhibitory concentration (IC50) in series [1] (setting [8]) came to 0.18 ± 0.02 µM; in series [2] (setting [9]) it was 0.14 ± 0.01 µM. Further, the “Resistance Index (RI)” value in series [1] amounted to 1.3. Besides, the “activity in the sensitive strain (in words)” value in series [2] is recorded as “good activity”.

`C#Cc1ccc(-c2cn(CCNc3ccnc4cc(Cl)ccc34)nn2)cc1F` [JR2, 7-chloro-N-(2-(4-(4-ethynyl-3-fluorophenyl)-1H-1,2,3-triazol-1-yl)ethyl)quinolin-4-amine]: the half-maximal inhibitory concentration (IC50) turned out to be 0.16 ± 0.01 µM in series [1] (setting [8]) and 0.15 ± 0.01 µM in series [2] (setting [9]). In addition, in series [1], the “Resistance Index (RI)” value was found to be 1.1. Also, in series [2], the “activity in the sensitive strain (in words)” value was “good activity”.

In the case of `C#Cc1ccc(-c2cn(CCNc3ccnc4cc(Cl)ccc34)nn2)c(F)c1` [JR3, 7-chloro-N-(2-(4-(4-ethynyl-2-fluorophenyl)-1H-1,2,3-triazol-1-yl)ethyl)quinolin-4-amine], the results for the IC50 in series [1] (setting [8]) and in series [2] (setting [9]) were 0.21 ± 0.02 µM and 0.19 ± 0.02 µM, respectively. The “Resistance Index (RI)” value in series [1] was 1.1. Moreover, the “activity in the sensitive strain (in words)” value in series [2] is on record as “good activity”.

Turning to `C#Cc1ccc(-c2cn(CC(=O)N3CCn4c(nc(-c5ccc(F)cc5)c4Nc4ccc(F)cc4)C3(C)C)nn2)cc1` [SN1, 2-(4-(4-ethynylphenyl)-1H-1,2,3-triazol-1-yl)-1-(2-(4-fluorophenyl)-3-((4-fluorophenyl)amino)-8,8-dimethyl-5,6-dihydroimidazo[1,2-a]pyrazin-7(8H)-yl)ethan-1-one], the “activity in the sensitive strain (in words)” value in series [2] is “inactive”.

Consider “Cobalamin-2-(4-(4-ethynylphenyl)-1H-1,2,3-triazol-1-yl)-1-(2-(4-fluorophenyl)-3-((4-fluorophenyl)amino)-8,8-dimethyl-5,6-dihydroimidazo[1,2-a]pyrazin-7(8H)-yl)ethan-1-one [Compound B12-SN1]”, for which the “activity in the sensitive strain (in words)” value in series [2] was “inactive”.

As for “cobalamin-7-chloro-N-(2-(4-(4-ethynyl-2-fluorophenyl)-1H-1,2,3-triazol-1-yl)ethyl)quinolin-4-amine [Compound B12-JR3]”, the IC50 in series [1] (setting [10]) was above 15 µM; in series [2] (setting [11]) it was 9.68 ± 0.73 µM. The “Resistance Index (RI)” value in series [1] is on record as above 1.6.

For the compound “cobalamin-7-chloro-N-(2-(4-(4-ethynyl-3-fluorophenyl)-1H-1,2,3-triazol-1-yl)ethyl)quinolin-4-amine [Compound B12-JR2]”, in series [1] (setting [10]), the half-inhibitory concentration (IC50) came to 6.02 ± 0.71 µM. Further, in series [1], the “Resistance Index (RI)” value was 1.3 and the “activity against the CQR K1 strain relative to CQS (in words)” value is given as “equally active”. In series [2] (setting [11]), the 50% inhibitory concentration (IC50) is 4.73 ± 0.32 µM.

By LC50 is commonly meant the concentration that kills 50% of the test population. As to “cobalamin-7-chloro-N-(2-(4-(4-ethynylphenyl)-1H-1,2,3-triazol-1-yl)ethyl)quinolin-4-amine [Compound B12-JR1]”, in series [3], the “toxicity in zebrafish embryos (survival/teratogenicity, in words)” value is reported as “neither toxic”. The same compound showed a median lethal concentration (LC50) in series [3] (zebrafish model) above 150 µM. Further, the “liver area index (in words)” value in series [4] (exposure 72–120 hpf) is “did not affect the liver area index”. Also, in series [4] (exposure 72–120 hpf), the “liver size and fluorescence (in words)” value is “no changes in the liver size and fluorescence”. For the same compound, the “hepatotoxicity (in words)” value in series [4] (dose 16–24 higher than the one active against Plasmodium strains) is “not hepatotoxic”. Besides, the IC50 in series [1] (setting [10]) worked out at 9.18 ± 0.85 µM; in series [1] (Table 2, in vitro data obtained in the cell-based assay, read-out: IC50 K1), 9.2 µM; in series [7], 70 µM; in series [2] (setting [11]), 6.27 ± 0.37 µM; in series [2] (Table 2, in vitro data obtained in the cell-based assay, read-out: IC50 NF54) it was 6.3 µM. Also, the “Resistance Index (RI)” value in series [1] was 1.5. Also, the “activity against the CQR K1 strain relative to CQS (in words)” value in series [1] is listed as “equally active”. The “toxicity against CHO cells (in words)” value in series [5] is given as “not to be toxic”. Also, the “organ distribution when applied in the embryo water (in words)” value in series [6] (150 µM, 106–120 hpf) was “preferential accumulation of both compounds in the liver”. In series [6] (after the exposure period, 150 µM of B12-JR1 and 20 µM B12-JR1-CBC), the “effect on liver development (in words)” value is reported as “did not affect the liver development”. Also, the “organ distribution after microinjection into the blood circulation (in words)” value in series [6] (parenteral, microinjected at 106 hpf, analysed at 120 hpf) is reported as “solely detected in the liver”.

As for “cyanocobalamin [vitamin B12, reference compound]”, the “toxicity in zebrafish embryos (survival/teratogenicity, in words)” value in series [3] is “neither toxic”.

These data come from article PMC6630517 (Molecules, 2019).
